Columns and labels:
Assay in all cases: relative viability (nuclei count vs DMSO), 5 days (fraction); higher = more cells survive
[1] = compound: C1=CC=C(C(=C1)C2=CC=C(C=C2)C3=CSC4=C3C(=C(C(=O)N4)C#N)O)O + CS(=O)(=O)N1CCN(Cc2cc3nc(-c4cccc5[nH]ncc45)nc(N4CCOCC4)c3s2)CC1 [Pictilisib] (partner 1 µM)
Summary of the method: (§1)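 Lung cancer cell lines were pin-tool dosed in 1536-well plates on the day after seeding, with either a lone drug or a fixed anchor-drug dose plus five library-drug doses (not always all listed) in √10 steps. Nuclei were counted on 4× images after 5 days. Relative viability is the ratio of treated-well to vehicle-well nuclei counts, with each value a median of duplicate plates.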

[2] = compound: C1=CC=C(C(=C1)C2=CC=C(C=C2)C3=CSC4=C3C(=C(C(=O)N4)C#N)O)O + Nc1ncn([C@H]2C[C@H](O)[C@@H](CO)O2)c(=O)n1 [Decitabine] (partner 2 µM)
Summary of the method: as §1

[3] = compound: CC1=CN2C(=O)C=C(N=C2C(=C1)C(C)NC3=CC=CC=C3)N4CCOCC4 [TGX 221] + CS(=O)(=O)N1CCN(Cc2cc3nc(-c4cccc5[nH]ncc45)nc(N4CCOCC4)c3s2)CC1 [Pictilisib] (partner 1 µM)
Summary of the method: as §1

[4] = compound: O=C(CCCCCCNC(=O)c1cnc(N(c2ccccc2)c2ccccc2)nc1)NO [Ricolinostat] + CS(=O)(=O)N1CCN(Cc2cc3nc(-c4cccc5[nH]ncc45)nc(N4CCOCC4)c3s2)CC1 [Pictilisib] (partner 1 µM)
Summary of the method: as §1

NCI-H2347
relative viability ([1]; first compound 0.08 µM): 0.624
relative viability ([1]; first compound 0.253 µM): 0.609
relative viability ([1]; first compound 0.8 µM): 0.496
relative viability ([1]; first compound 2.53 µM): 0.626
relative viability ([1]; first compound 8 µM): 0.454
relative viability ([2]; first compound 0.08 µM): 0.629
relative viability ([2]; first compound 0.253 µM): 0.605
relative viability ([2]; first compound 0.8 µM): 0.578
relative viability ([2]; first compound 2.53 µM): 0.675
relative viability ([2]; first compound 8 µM): 0.566
relative viability ([3]; first compound 0.08 µM): 0.608
relative viability ([3]; first compound 0.253 µM): 0.798
relative viability ([3]; first compound 0.8 µM): 0.433
relative viability ([3]; first compound 2.53 µM): 0.58
relative viability ([3]; first compound 8 µM): 0.428
relative viability ([4]; first compound 0.08 µM): 0.451
relative viability ([4]; first compound 0.253 µM): 0.628
relative viability ([4]; first compound 0.8 µM): 0.884
relative viability ([4]; first compound 2.53 µM): 0.644

NCI-H2405
relative viability ([1]; first compound 0.08 µM): 0.379
relative viability ([1]; first compound 0.253 µM): 0.439
relative viability ([1]; first compound 0.8 µM): 0.443
relative viability ([1]; first compound 2.53 µM): 0.436
relative viability ([1]; first compound 8 µM): 0.295
relative viability ([2]; first compound 0.08 µM): 0.798
relative viability ([2]; first compound 0.8 µM): 0.774
relative viability ([2]; first compound 2.53 µM): 0.66
relative viability ([2]; first compound 8 µM): 0.725
relative viability ([3]; first compound 0.08 µM): 0.36
relative viability ([3]; first compound 0.253 µM): 0.499
relative viability ([3]; first compound 0.8 µM): 0.426
relative viability ([3]; first compound 2.53 µM): 0.398
relative viability ([3]; first compound 8 µM): 0.366
relative viability ([4]; first compound 0.08 µM): 0.389
relative viability ([4]; first compound 0.253 µM): 0.494
relative viability ([4]; first compound 0.8 µM): 0.412
relative viability ([4]; first compound 2.53 µM): 0.277

NCI-H3122
relative viability ([1]; first compound 0.08 µM): 0.6
relative viability ([1]; first compound 0.253 µM): 0.666
relative viability ([1]; first compound 0.8 µM): 0.676
relative viability ([1]; first compound 2.53 µM): 0.682
relative viability ([1]; first compound 8 µM): 0.662
relative viability ([2]; first compound 0.08 µM): 0.513
relative viability ([2]; first compound 0.253 µM): 0.435
relative viability ([2]; first compound 0.8 µM): 0.362
relative viability ([2]; first compound 2.53 µM): 0.421
relative viability ([2]; first compound 8 µM): 0.535
relative viability ([3]; first compound 0.08 µM): 0.619
relative viability ([3]; first compound 0.253 µM): 0.581
relative viability ([3]; first compound 0.8 µM): 0.635
relative viability ([3]; first compound 2.53 µM): 0.574
relative viability ([3]; first compound 8 µM): 0.581
relative viability ([4]; first compound 0.08 µM): 0.533
relative viability ([4]; first compound 0.253 µM): 0.606
relative viability ([4]; first compound 0.8 µM): 0.696
relative viability ([4]; first compound 2.53 µM): 0.866

PC-3 [JPC-3]
relative viability ([1]; first compound 0.08 µM): 0.69
relative viability ([1]; first compound 0.253 µM): 0.888
relative viability ([1]; first compound 0.8 µM): 0.665
relative viability ([1]; first compound 2.53 µM): 0.685
relative viability ([1]; first compound 8 µM): 0.652
relative viability ([2]; first compound 0.08 µM): 0.806
relative viability ([2]; first compound 0.253 µM): 0.879
relative viability ([2]; first compound 0.8 µM): 0.844
relative viability ([2]; first compound 2.53 µM): 0.956
relative viability ([2]; first compound 8 µM): 0.805
relative viability ([3]; first compound 0.08 µM): 0.642
relative viability ([3]; first compound 0.253 µM): 0.73
relative viability ([3]; first compound 0.8 µM): 0.772
relative viability ([3]; first compound 2.53 µM): 0.748
relative viability ([3]; first compound 8 µM): 0.754
relative viability ([4]; first compound 0.08 µM): 0.669
relative viability ([4]; first compound 0.253 µM): 0.808
relative viability ([4]; first compound 0.8 µM): 0.673
relative viability ([4]; first compound 2.53 µM): 0.456

PC-14
relative viability ([1]; first compound 0.08 µM): 0.604
relative viability ([1]; first compound 0.253 µM): 0.674
relative viability ([1]; first compound 0.8 µM): 0.658
relative viability ([1]; first compound 2.53 µM): 0.797
relative viability ([1]; first compound 8 µM): 0.52
relative viability ([2]; first compound 0.08 µM): 0.222
relative viability ([2]; first compound 0.253 µM): 0.242
relative viability ([2]; first compound 0.8 µM): 0.24
relative viability ([2]; first compound 2.53 µM): 0.225
relative viability ([2]; first compound 8 µM): 0.195
relative viability ([3]; first compound 0.08 µM): 0.695
relative viability ([3]; first compound 0.253 µM): 0.61
relative viability ([3]; first compound 0.8 µM): 0.612
relative viability ([3]; first compound 2.53 µM): 0.685
relative viability ([3]; first compound 8 µM): 0.625
relative viability ([4]; first compound 0.08 µM): 0.536
relative viability ([4]; first compound 0.253 µM): 0.681
relative viability ([4]; first compound 0.8 µM): 0.653
relative viability ([4]; first compound 2.53 µM): 0.321

RERF-LC-KJ
relative viability ([1]; first compound 0.08 µM): 0.576
relative viability ([1]; first compound 0.253 µM): 0.538
relative viability ([1]; first compound 0.8 µM): 0.567
relative viability ([1]; first compound 2.53 µM): 0.466
relative viability ([1]; first compound 8 µM): 0.493
relative viability ([2]; first compound 0.08 µM): 0.762
relative viability ([2]; first compound 0.253 µM): 0.756
relative viability ([2]; first compound 0.8 µM): 0.609
relative viability ([2]; first compound 2.53 µM): 0.819
relative viability ([2]; first compound 8 µM): 0.681
relative viability ([3]; first compound 0.08 µM): 0.488
relative viability ([3]; first compound 0.253 µM): 0.57
relative viability ([3]; first compound 0.8 µM): 0.551
relative viability ([3]; first compound 2.53 µM): 0.466
relative viability ([3]; first compound 8 µM): 0.481
relative viability ([4]; first compound 0.08 µM): 0.755
relative viability ([4]; first compound 0.253 µM): 0.637
relative viability ([4]; first compound 0.8 µM): 0.422
relative viability ([4]; first compound 2.53 µM): 0.467

SK-LU-1
relative viability ([1]; first compound 0.08 µM): 0.426
relative viability ([1]; first compound 0.253 µM): 0.532
relative viability ([1]; first compound 0.8 µM): 0.57
relative viability ([1]; first compound 2.53 µM): 0.61
relative viability ([1]; first compound 8 µM): 0.508
relative viability ([2]; first compound 0.08 µM): 0.506
relative viability ([2]; first compound 0.253 µM): 0.572
relative viability ([2]; first compound 0.8 µM): 0.593
relative viability ([2]; first compound 2.53 µM): 0.575
relative viability ([2]; first compound 8 µM): 0.497
relative viability ([3]; first compound 0.08 µM): 0.601
relative viability ([3]; first compound 0.253 µM): 0.536
relative viability ([3]; first compound 0.8 µM): 0.576
relative viability ([3]; first compound 2.53 µM): 0.553
relative viability ([3]; first compound 8 µM): 0.568
relative viability ([4]; first compound 0.08 µM): 0.478
relative viability ([4]; first compound 0.253 µM): 0.469
relative viability ([4]; first compound 0.8 µM): 0.423
relative viability ([4]; first compound 2.53 µM): 0.485

SK-MES-1
relative viability ([1]; first compound 0.08 µM): 0.33
relative viability ([1]; first compound 0.253 µM): 0.368
relative viability ([1]; first compound 0.8 µM): 0.354
relative viability ([1]; first compound 2.53 µM): 0.284
relative viability ([1]; first compound 8 µM): 0.307
relative viability ([2]; first compound 0.08 µM): 0.382
relative viability ([2]; first compound 0.253 µM): 0.408
relative viability ([2]; first compound 0.8 µM): 0.383
relative viability ([2]; first compound 2.53 µM): 0.404
relative viability ([2]; first compound 8 µM): 0.376
relative viability ([3]; first compound 0.08 µM): 0.406
relative viability ([3]; first compound 0.253 µM): 0.363
relative viability ([3]; first compound 0.8 µM): 0.304
relative viability ([3]; first compound 2.53 µM): 0.328
relative viability ([3]; first compound 8 µM): 0.289
relative viability ([4]; first compound 0.08 µM): 0.277
relative viability ([4]; first compound 0.253 µM): 0.34
relative viability ([4]; first compound 0.8 µM): 0.304
relative viability ([4]; first compound 2.53 µM): 0.293

SW 1573
relative viability ([1]; first compound 0.08 µM): 0.475
relative viability ([1]; first compound 0.253 µM): 0.571
relative viability ([1]; first compound 0.8 µM): 0.54
relative viability ([1]; first compound 2.53 µM): 0.458
relative viability ([1]; first compound 8 µM): 0.37
relative viability ([2]; first compound 0.08 µM): 0.447
relative viability ([2]; first compound 0.253 µM): 0.536
relative viability ([2]; first compound 0.8 µM): 0.552
relative viability ([2]; first compound 2.53 µM): 0.468
relative viability ([2]; first compound 8 µM): 0.425
relative viability ([3]; first compound 0.08 µM): 0.489
relative viability ([3]; first compound 0.253 µM): 0.458
relative viability ([3]; first compound 0.8 µM): 0.43
relative viability ([3]; first compound 2.53 µM): 0.461
relative viability ([3]; first compound 8 µM): 0.467
relative viability ([4]; first compound 0.08 µM): 0.454
relative viability ([4]; first compound 0.253 µM): 0.504
relative viability ([4]; first compound 0.8 µM): 0.542
relative viability ([4]; first compound 2.53 µM): 0.475

UMC-11
relative viability ([1]; first compound 0.08 µM): 0.695
relative viability ([1]; first compound 0.253 µM): 0.717
relative viability ([1]; first compound 0.8 µM): 0.855
relative viability ([1]; first compound 2.53 µM): 0.829
relative viability ([1]; first compound 8 µM): 0.778
relative viability ([2]; first compound 0.08 µM): 0.668
relative viability ([2]; first compound 0.253 µM): 1.02
relative viability ([2]; first compound 0.8 µM): 0.495
relative viability ([2]; first compound 2.53 µM): 0.477
relative viability ([2]; first compound 8 µM): 0.57
relative viability ([3]; first compound 0.08 µM): 0.742
relative viability ([3]; first compound 0.253 µM): 0.783
relative viability ([3]; first compound 0.8 µM): 0.787
relative viability ([3]; first compound 2.53 µM): 0.723
relative viability ([3]; first compound 8 µM): 0.831
relative viability ([4]; first compound 0.08 µM): 0.645
relative viability ([4]; first compound 0.253 µM): 0.859
relative viability ([4]; first compound 0.8 µM): 0.723
relative viability ([4]; first compound 2.53 µM): 0.24

Reference: the supplement of paper PMC10307832
